Experimental findings from patent publication US20180172712A1, “METHODS AND MATERIALS FOR ASSESSING HYDROGEN PEROXIDE ACCUMULATION IN CELLS” (Mayo Foundation for Medical Education and Research, priority 2015, published 2018) are described below.

Like-named read-outs stand apart in the source and are kept apart here.

The test system of test [1] is OCIMY5-Vector and OCIMY-CRBN cells. The test can be described thus: MTT assay in OCIMY5-Vector and OCIMY-CRBN cells. To be noted: 72 hours. The method, then:
Cell viability was assessed by 3-(4,5-dimethylthiazol-2-yl)-2,5-diphenyltetrazolium bromide (MTT) colorimetric assay. […] The data were normalized to the DMSO-treated group. Each experimental condition was performed in triplicate and repeated at least once. Thalidomide was obtained from Sigma, and pomalidomide was obtained from Selleckchem.
(§1) Human CRBN cDNA was obtained from Thermo Scientific and subcloned into a lentiviral expression vector, pCDH-CMV-MCS-EF1-copGFP (System Bioscience). Lentivirus harboring control vector and CRBN cDNA constructs were prepared and used to infect the multiple myeloma (MM) cell line OCIMY5. Infection efficiency was measured by FACScan analysis of GFP expression 3 days after infection. The cells were sorted for GFP expression 14 days after infection.

For test [2], the system named is myeloma cells. The test can be described thus: MTT assay of dehydroascorbic acid in myeloma cells. The test is classed as cell-based, human. To be noted: high concentrations. An excerpt: (§2) The data were normalized to the DMSO-treated group.
Test [3] concerns IKZF1 and IKZF3. The test can be described thus: Western blot of IKZF1 and IKZF3 in OCIMY-5 cells overexpressing CRBN. To be noted: lenalidomide 10 μM or H2O2 25 or 50 μM, within 3 hours. The test is classed as cell-based, human. On the procedure: (§3) Proteins were transferred to polyvinylidene fluoride membranes (Bio-Rad).
as §1

Test [4] relates to IKZF1 and IKZF3. The test can be described thus: Western blot of IKZF1 and IKZF3 in MM.1S cells. The test is classed as cell-based, human. To be noted: for IKZF1 and IKZF3 degradation: MM.1S cells, 3 hours (lenalidomide 10 μM, H2O2 100 μM, PX12 20 μM).
Source text: as §3

For test [5], the system named is IKZF1 and IKZF3. To be noted: OPM2-NT vs OPM2-shCRBN; H2O2 25 or 50 μM, 3 hours.
Source text: as §3

A further test has as its system RPMI-8226 cells. The test can be described thus: MTT assay in RPMI-8226 cells. To be noted: RPMI-8226, 3 days. Type of test: cell-based, human.
Source text: as §2

A further test has as its system MM.1S cells. The test is described as follows: MTT assay in MM.1S cells. The test is classed as cell-based, human. To be noted: 3 days.
Source text: as §2

A further test deals with IgL-λ dimers. The test is described as follows: IgL dimerization immunoblot under nonreducing conditions in MM.1S cells. Type of test: cell-based, human. To be noted: 3 hours, lenalidomide 10 μM or H2O2 25 μM.
Source text: as §3

The subject of test [6] is Myeloma cell line harboring CRBN or without CRBN. The test can be described thus: Cell survival of myeloma cell line harboring CRBN or without CRBN treated with cofactors. The test is classed as cell-based, human. To be noted: cofactor alone.
Source text: as §2

Test [7] deals with IKZF1 and IKZF3. The test is described as follows: Western blot of IKZF1 and IKZF3 in OPM2 cells. The test is classed as cell-based, human. To be noted: PX12 20 μM, within 3 hours.
Source text: as §3

For the next test, the system named is thioredoxin reductase. The test is described as follows: Thioredoxin reductase inhibition.
For test [8], the system named is myeloma cells. The test is described as follows: MTT assay of auranofin in myeloma cells. Type of test: cell-based, human.
Source text: as §2

Test [9] relates to myeloma cells. The test is described as follows: Intracellular H2O2 accumulation in myeloma cells. Type of test: cell-based, human.
Test [10] concerns myeloma cell line harboring CRBN and myeloma cell line without CRBN. The test is described as follows: Viability of myeloma cell lines with auranofin and bortezomib. Type of test: cell-based, human. To be noted: bortezomib in combination with auranofin.
A further test has as its system OPM2 cells. The test can be described thus: Apoptosis assay (Annexin V/propidium iodide FACS) in OPM2 cells. The test is classed as cell-based, human. To be noted: lenalidomide 10 μM pretreatment two days, bortezomib 2.5 nM 2 days.
Another test deals with PARP. The test is described as follows: PARP cleavage immunoblot in OPM2-NT and OPM2-shCRBN cells. The test is classed as cell-based, human. To be noted: OPM2 CRBN-positive cells; bortezomib 2.5 nM 2 days.
Source text: as §3

Another test has as its system RPMI-8226 myeloma cells. The test is described as follows: Anti-oxidative capacity by FAD and NAD(P)H autofluorescence flow cytometry. Type of test: cell-based, human. To be noted: pre-treatment of myeloma cells, then external H2O2. On the procedure: HMCLs cells (1 million cells/1 mL PBS) treated or not treated with 100 μM concentration of H2O2 were immediately analyzed for autofluoresnece of FAD (FITC-A channel) and NAD(P)H (UV Blue-A channel) with multicolor flow cytometry (BD LSRFORTESSA). Flowjo histogram normalization was used to overlay untreated versus treated samples.

Test [11] deals with intracellular peroxidases in HMCLs. The test can be described thus: Intra-cellular peroxidase activity by Amplex Red in HMCLs. Type of test: cell-based, human. To be noted: for intracellular H2O2 decomposition mediated by peroxidases: different myeloma cell lines, thalidomide 20 μM, lenalidomide 20 μM, pomalidomide 10 μM, 40 to 60 minutes. On the procedure: (§4) After 30 minutes, plates were read for fluorescence at 530 nm excitation and 590 nm emission with plate reader (Biotek Cytation3). For determining intra-cellular peroxidase activity by Amplex Red, cells were washed and mixed with Amplex Red reagent (50 μM) in HBSS buffer and plated 100,000 cells per well into 96 well plate, four wells for each condition. […] The DMSO control included H2O2 (100 μM). […] After specific time periods, the plates were read for fluorescence intensity using plate reader.

In another test the target is T1, Horseradish peroxidase (Armoracia rusticana, UniProt P00433).
T1 sequence (P00433 31-338 limits assumed): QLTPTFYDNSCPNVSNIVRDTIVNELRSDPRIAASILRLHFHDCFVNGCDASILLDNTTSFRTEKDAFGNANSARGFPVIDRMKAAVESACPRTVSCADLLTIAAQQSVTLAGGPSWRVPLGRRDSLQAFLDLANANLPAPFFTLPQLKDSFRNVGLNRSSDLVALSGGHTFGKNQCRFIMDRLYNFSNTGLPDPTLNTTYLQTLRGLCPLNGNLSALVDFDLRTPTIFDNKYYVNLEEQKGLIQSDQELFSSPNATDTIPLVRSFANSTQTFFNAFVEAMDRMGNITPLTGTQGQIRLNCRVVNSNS
The test can be described thus: HRP/Amplex Red in-vitro assay. Type of test: biochemical. To be noted: 10 μM drug, 5 μM H2O2, 30 minutes. On the procedure: as §4

The mark [12] stands for this setting: OCIMY5-Vector (CRBN deficient) cells.
[13] abbreviates: OCIMY-CRBN (CRBN positive) cells.

As to `O=C([O-])CC([S-])C(=O)[O-].[Au+].[Na+].[Na+]` (centres unmarked) [ATM, sodium aurothiomalate], the “cell proliferation (MTT)” value in test [1] (setting [12]) and in [1] (setting [13]) was “did not inhibit cell proliferation” throughout.
Regarding `O=C1O[C@H]([C@@H](O)CO)C(=O)C1=O` [DHA, Dehydroascorbic acid], in the test with myeloma cells [2], the “myeloma cell proliferation (MTT)” value is recorded as “inhibited myeloma cell proliferation”.
Take `OO` [H2O2, hydrogen peroxide]: the “IKZF1 and IKZF3 degradation” value with IKZF1 and IKZF3 [3] was “enhanced IKZF1 and IKZF3 degradation”; in the test with IKZF1 and IKZF3 [4], “degraded IKZF1 and IKZF3 most effectively”; with IKZF1 and IKZF3 [5] it was “in a CRBN-dependent fashion”. Further, the IKZF1 degradation entry in the test on IKZF1 and IKZF3 [4] (MM.1S, 3 hours of treatment) is “prominent”. The “time of peak IKZF1 dimerization after treatment” value in the test on IKZF1 and IKZF3 [4] (MM.1S, exogenous H2O2 50 μM) was 60 min. Also, the IKZF1 dimerization result with IKZF1 and IKZF3 [4] (MM.1S, nonreducing conditions, lenalidomide 10 μM or exogenous H2O2 50 μM) is listed as “induced IKZF1 dimerization”. The “sensitivity of cell line (MTT)” value in the test on RPMI-8226 cells is “resistant”; in the test with MM.1S cells it was “hypersensitive”. For the same compound, in the test on IgL-λ dimers, the “formation of IgL-λ dimers” value is listed as “increased formation of IgL-λ dimers”.
For the compound `NC(=O)C1=CN([C@@H]2O[C@H](COP(=O)(O)OP(=O)(O)OC[C@H]3O[C@@H](n4cnc5c(N)ncnc54)[C@H](O)[C@@H]3O)[C@@H](O)[C@H]2O)C=CC1` [NADH], in test [6], the cell survival result was “induced cell death”.
In the case of `NC(=O)C1=CN([C@@H]2O[C@H](COP(=O)(O)OP(=O)(O)OC[C@H]3O[C@@H](n4cnc5c(N)ncnc54)[C@H](OP(=O)(O)O)[C@@H]3O)[C@@H](O)[C@H]2O)C=CC1` [NADPH], the cell survival result in test [6] was “induced cell death”.
In the case of `NC(=O)c1ccc[n+]([C@@H]2O[C@H](COP(=O)([O-])OP(=O)(O)OC[C@H]3O[C@@H](n4cnc5c(N)ncnc54)[C@H](OP(=O)(O)O)[C@@H]3O)[C@@H](O)[C@H]2O)c1` [NADP], the cell survival entry in test [6] was “induced cell death”.
In the case of `NC(=O)c1ccc[n+]([C@@H]2O[C@H](COP(=O)([O-])OP(=O)(O)OC[C@H]3O[C@@H](n4cnc5c(N)ncnc54)[C@H](O)[C@@H]3O)[C@@H](O)[C@H]2O)c1` [NAD], the cell survival entry in [6] is “induced cell death”.
For the compound `CCC(C)SSc1ncc[nH]1` (centres unmarked) [PX12, 1-methylpropyl 2-imidazolyl disulfide], the “cell proliferation (MTT)” value in test [1] (setting [12]) and in test [1] (setting [13]) was “inhibited cell proliferation” each time. Besides, the “IKZF1 and IKZF3 degradation” value was “induced IKZF1 and IKZF3 degradation” in the test with IKZF1 and IKZF3 [4]; “induced IKZF1 and IKZF3 degradation” in the test on IKZF1 and IKZF3 [7].
As for `CC(=O)OC[C@H]1O[C@@H]([S-])[C@H](OC(C)=O)[C@@H](OC(C)=O)[C@@H]1OC(C)=O.CCP(CC)CC.[Au+]` [auranofin], the “potency in inhibiting thioredoxin reductase, compared with lenalidomide” value in the test with thioredoxin reductase is recorded as “more potent than lenalidomide”. Further, in the test on myeloma cells [8], the “CRBN dependence of inhibition of cancer cell proliferation” value is reported as “irrespective of CRBN level” and the “potency in inhibiting cancer cell proliferation, compared with lenalidomide” value is on record as “more potent than lenalidomide”. Further, in the test with myeloma cells [8] (myeloma cells), the “cancer cell viability (MTT)” value was “reducing cancer cell viability”. Moreover, the “intracellular H2O2 accumulation” value in the test with myeloma cells [9] was “effective at accumulating intracellular H2O2”.
Take `CC(C)C[C@H](NC(=O)[C@H](Cc1ccccc1)NC(=O)c1cnccn1)B(O)O` [bortezomib]: in test [10], the “interaction with auranofin (percent viability)” value is reported as “synergy”. The “bortezomib-induced apoptosis in cells pretreated with lenalidomide vs not pretreated” value with OPM2 cells is “increased sensitivity”. In addition, in the test on PARP, the “bortezomib-induced PARP cleavage after lenalidomide pretreatment” value is reported as “enhanced”.
On to `O=C(O)CCCC[C@@H]1CCSS1` [lipoic acid], for which, in the test with RPMI-8226 myeloma cells, the “anti-oxidative capacity (FADH2 and NAD(P)H oxidation)” value was “decreased myeloma cells anti-oxidative capacity”.
Same read-out and setting: then `NC(=O)CCCCC1CCSS1` (centres unmarked) [lopoamide], with “decreased myeloma cells anti-oxidative capacity”.
`Nc1cccc2c1C(=O)N(C1CCC(=O)NC1=O)C2=O` (centres unmarked) [pomalidomide]: in test [11] (FIG. 1C-E and FIG. 2A), the “inhibition of intracellular peroxidases compared among IMIDs” value was “more potentially than thalidomide and lenalidomide”. For the same compound, in [11], the “intracellular H2O2 decomposition mediated by peroxidases” value is “inhibit intracellular H2O2 decomposition”. Besides, on Horseradish peroxidase, the “decomposition of H2O2 by horseradish peroxidase (Amplex Red to resorufin)” value was “inhibited”.
`O=C1CCC(N2C(=O)c3ccccc3C2=O)C(=O)N1` (centres unmarked) [thalidomide]: in test [11], the “intracellular H2O2 decomposition mediated by peroxidases” value is listed as “inhibit intracellular H2O2 decomposition”. Besides, on Horseradish peroxidase, the “decomposition of H2O2 by horseradish peroxidase (Amplex Red to resorufin)” value is listed as “inhibited”.
